This passage reports target mRNA inhibition results from the OligoGym collection.

This series addresses DGAT2. The settings on record: ASO.

Where “and” joins values, the source holds several entries; their conditions need not be identical. Equal entries are not always repeated. After the bases stand the sugars from the 5' end (letter, count) and the backbone: PS all phosphorothioate, else s phosphorothioate and o phosphodiester by linkage. Methylation of C is not given here. e = 2'-O-(2-methoxyethyl) (MOE); d = 2'-deoxy (DNA)

“TTCACCAGGGCCTCCATGTA (sugars e5 d10 e5, PS)”: the target mRNA inhibition (HepG2, 0.12 µM) came out at 20%. Turning to “TCAGGACCTCAGGGCTGGCC (sugars e5 d10 e5, PS)”, the target mRNA inhibition worked out at 64% (HepG2, 2.5 µM) and 82% (HepG2, 10 µM). The matching figures for “GCTTGTCGAAGAGCTTCACC (sugars e5 d10 e5, PS)”: 25% and 78%.

“CCCATCTCCCAGACCCCTCG (sugars e5 d10 e5, PS)”: the target mRNA inhibition (HepG2, 0.12 µM) was 12%. “GACTCAGTGTCCTCCTTAGC (sugars e5 d10 e5, PS)” gave a target mRNA inhibition (HepG2, 10 µM) of 73%. For “ACCACAGCGATAATCAC (sugars e3 d10 e4, PS)”, the target mRNA inhibition (HepG2, 2.5 µM) stood at 50% and the target mRNA inhibition (HepG2, 10 µM) came to 75%. The matching figures for “AGGCACAGAAAAGTGAGGCT (sugars e5 d10 e5, PS)”: 75% and 67%. With “CTGCATAGCTGAGCAAATCC (sugars e5 d10 e5, PS)”, the target mRNA inhibition runs as follows: (HepG2, 2.5 µM) 52%; (HepG2, 10 µM) 70%. For “GAGTATAGAAATTTCACTGA (sugars e5 d10 e5, PS)”, the target mRNA inhibition (HepG2, 0.12 µM) amounted to 44%. On the same count and under the same terms, with “CTTCTTCTGGACCCATCGGC (sugars e5 d10 e5, PS)” the figure was 27%; with “TCACTGATGACATATCCCCA (sugars e5 d10 e5, PS)”, 52%; with “TTTCGGACCCACTGTGACCT (sugars e2 d13 e5, PS)”, 68%. Regarding “TATTCTAAAACTCAAATCCA (sugars e5 d10 e5, PS)”, the target mRNA inhibition worked out at 21% (HepG2, 2.5 µM) and 75% (HepG2, 10 µM). In the same order, the values of “CAGCAGTCTGCCTGATTCCC (sugars e5 d10 e5, PS)” are 66% and 94%. In the case of “GGAGCTCAGAGACTCAGCCG (sugars e3 d14 e3, PS)”, the target mRNA inhibition amounted to 81% (HepG2, 0.12 µM); 17% (HepG2, 2.5 µM); 53% (HepG2, 10 µM); 25% (HepG2, 20 µM). With “AATCCAACCCTTGTCACTCT (sugars e5 d10 e5, PS)”, the target mRNA inhibition (HepG2, 2.5 µM) was determined as 33% and the target mRNA inhibition (HepG2, 10 µM) is 94%.

“GGTCAGCAGGTTGTGTGTCT (sugars e5 d10 e5, PS)”: the target mRNA inhibition (HepG2, 0.12 µM) was 45% and 62%. “AATGGGAATGGTATCGCACT (sugars e5 d10 e5, PS)”: the target mRNA inhibition reads like this: (HepG2, 2.5 µM) 58%; (HepG2, 10 µM) 89%. “TGCACCATAATCTGCACAGG (sugars e5 d10 e5, PS)”: the target mRNA inhibition is 75% and 71% (HepG2, 2.5 µM); 80% and 91% (HepG2, 10 µM). As for “CTGGACAAGTCCTGCCCATC (sugars e2 d13 e5, PS)”, for the setting “HepG2, 0.12 µM”, the target mRNA inhibition came out at 58%. As to “GACAAAGTCTATCAGGATGC (sugars e5 d10 e5, PS)”, the target mRNA inhibition is 88% and 67% (HepG2, 2.5 µM); 92% and 91% (HepG2, 10 µM).

Take “GGCATGGAGCTCAGAGACTC (sugars e2 d13 e5, PS)”: the target mRNA inhibition (HepG2, 0.12 µM) is 77%. The same measure, in the same setting: with “CTGCCACCTTCCAGGGAATA (sugars e5 d10 e5, PS)” the figure was 27%. In the case of “CCCAGATTTAGCCACCACCT (sugars e5 d10 e5, PS)”, the target mRNA inhibition is, setting by setting: (HepG2, 2.5 µM) 56%; (HepG2, 10 µM) 72%.

Where the note is “HepG2, 0.12 µM”, “ACAGAAAAGTGAGGCTTGGG (sugars e5 d10 e5, PS)” had a target mRNA inhibition of 40%.

For the sequence “GCTCAGAGACTCAGCCGCAC (sugars e5 d10 e5, PS)”, the target mRNA inhibition was determined as 86% (HepG2, 0.12 µM); 41% (HepG2, 2.5 µM); 60% (HepG2, 10 µM); 47% (HepG2, 20 µM). As to “AGAGCACAGCGATGAGCCAG (sugars e5 d10 e5, PS)”, the target mRNA inhibition was determined as 52% (HepG2, 2.5 µM) and 85% (HepG2, 10 µM). In the same order, the values of “ACCAGCCAGGCCCAGACCCA (sugars e5 d10 e5, PS)” are 21% and 43%. On to “GAGTCTGTGCTGCATCCATG (sugars e5 d10 e5, PS)”, for which the target mRNA inhibition (HepG2, 0.12 µM) was 48%. As for “TGCCCTTGCTGTAGGACCCA (sugars e5 d10 e5, PS)”, the target mRNA inhibition (HepG2, 2.5 µM) is 92% and 79%; the target mRNA inhibition (HepG2, 10 µM) is 88% and 95%. Turning to “ACAAAGTCTATCAGGATGCA (sugars e5 d10 e5, PS)”, the target mRNA inhibition worked out at 53% (HepG2, 2.5 µM) and 91% (HepG2, 10 µM).

Regarding “CAGCCAAGTGAAGTAGAGCA (sugars e5 d10 e5, PS)”, the target mRNA inhibition (HepG2, 0.12 µM) worked out at 41%. Regarding “GCCTCGGTGTCCTCTCCTGT (sugars e5 d10 e5, PS)”, the target mRNA inhibition by setting is: (HepG2, 2.5 µM) 59%; (HepG2, 10 µM) 83%.

As for “AGGCATGGAGCTCAGAGACT (sugars e3 d14 e3, PS)”, the target mRNA inhibition (HepG2, 0.12 µM) stood at 66%. For “CAATGCCAATGCCTAGGTCA (sugars e5 d10 e5, PS)”, the target mRNA inhibition runs as follows: (HepG2, 2.5 µM) 70%; (HepG2, 10 µM) 90%.
